Laboratory results from ChEMBL document CHEMBL2346516, “Sponge-derived acetylenic alcohols, petrosiols, inhibit proliferation and migration of platelet-derived growth factor (PDGF)-induced vascular smooth muscle cells” (Bioorg Med Chem, 2013).
Blank lines part the entries; values can stand above or below the compound they belong to. Active and inactive are the calls of the source. The calls are words filed in the database; no cut-off is given here.

What was measured:
HASMC [1] = experiment: Cell cycle arrest in PGDF-stimulated human HASMC assessed as proportion of cells in S phase at 2 uM treated for 6 hrs prior to incubation with PDGF measured after 24 hrs by propidium iodide staining based flow cytometry (reference value: 20.8%); assay type: functional
[2] = target: Platelet-derived growth factor receptor beta (Homo sapiens) (UniProt P09619); experiment: Inhibition of PDGF-induced PDGFRbeta phosphorylation in human HASMC after 5 to 15 mins by Western blot analysis
Chain of Platelet-derived growth factor receptor beta (Homo sapiens) (P09619 whole entry): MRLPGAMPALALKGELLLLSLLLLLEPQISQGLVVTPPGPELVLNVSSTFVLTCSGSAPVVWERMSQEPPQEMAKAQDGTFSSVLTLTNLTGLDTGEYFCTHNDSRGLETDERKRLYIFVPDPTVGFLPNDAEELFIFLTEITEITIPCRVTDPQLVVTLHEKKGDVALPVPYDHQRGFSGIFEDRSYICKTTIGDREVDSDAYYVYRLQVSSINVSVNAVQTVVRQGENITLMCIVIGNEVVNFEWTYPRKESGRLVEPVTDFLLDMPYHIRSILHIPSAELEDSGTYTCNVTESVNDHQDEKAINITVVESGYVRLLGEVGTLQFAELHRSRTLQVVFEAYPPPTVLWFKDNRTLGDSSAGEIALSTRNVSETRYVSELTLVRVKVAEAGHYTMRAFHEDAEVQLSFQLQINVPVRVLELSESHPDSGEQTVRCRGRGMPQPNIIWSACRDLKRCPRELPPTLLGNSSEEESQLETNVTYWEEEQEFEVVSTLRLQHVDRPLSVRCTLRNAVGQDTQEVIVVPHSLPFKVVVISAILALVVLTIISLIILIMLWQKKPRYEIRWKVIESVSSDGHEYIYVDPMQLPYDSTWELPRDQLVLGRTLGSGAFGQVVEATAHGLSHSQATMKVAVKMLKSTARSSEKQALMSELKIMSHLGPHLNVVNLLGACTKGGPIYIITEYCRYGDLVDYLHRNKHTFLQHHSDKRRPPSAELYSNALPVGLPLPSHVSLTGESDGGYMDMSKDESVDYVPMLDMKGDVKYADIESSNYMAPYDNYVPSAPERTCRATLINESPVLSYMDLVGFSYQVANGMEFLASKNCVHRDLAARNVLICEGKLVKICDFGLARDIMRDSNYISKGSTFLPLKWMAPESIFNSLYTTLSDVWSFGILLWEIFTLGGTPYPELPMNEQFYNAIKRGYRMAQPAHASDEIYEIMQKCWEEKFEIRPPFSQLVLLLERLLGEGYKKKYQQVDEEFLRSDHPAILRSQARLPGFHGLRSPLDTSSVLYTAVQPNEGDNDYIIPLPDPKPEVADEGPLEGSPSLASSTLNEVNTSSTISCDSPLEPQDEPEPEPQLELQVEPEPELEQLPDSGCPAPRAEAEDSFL

[3] = target: Platelet-derived growth factor receptor beta (Homo sapiens) (UniProt P09619); experiment: Inhibition of PDGFRbeta in human HASMC assessed as decrease in PDGF-induced ERK1/2 phosphorylation at 1 to 4 uM after 5 to 15 mins by Western blot analysis
HASMC [4] = experiment: Cell cycle arrest in PGDF-stimulated human HASMC assessed as proportion of cells in S phase at 1 uM treated for 6 hrs prior to incubation with PDGF measured after 24 hrs by propidium iodide staining based flow cytometry (reference value: 20.8%); assay type: functional
HASMC [5] = experiment: Cytotoxicity against human HASMC assessed as effect on cell vaibility at 0.5 to 4 uM after 24 hrs by MTT assay; assay type: cell-based
[6] = target: Platelet-derived growth factor receptor beta (Homo sapiens) (UniProt P09619); experiment: Inhibition of PDGFRbeta in human HASMC assessed as decrease in PDGF-induced PLC-gamma1 phosphorylation at 1 to 4 uM after 5 to 15 mins by Western blot analysis
HASMC [7] = experiment: Inhibition of PDGF-induced CDK2 expression in human HASMC at 2 to 4 uM after 24 hrs by Western blot analysis; assay type: functional, cell-based
HASMC [8] = experiment: Inhibition of PDGF-induced human HASMC proliferation after 24 hrs by trypan blue dye exclusion assay; assay type: functional, cell-based
HASMC [9] = experiment: Inhibition of PDGF-induced DNA synthesis in human HASMC assessed as decrease in [3H]thymidine incorporation after 20 hrs by microplate scintillation analysis; assay type: functional, cell-based
HASMC [10] = experiment: Inhibition of PDGF-induced actin filament dissociation in human HASMC at 2 to 4 uM after 24 hrs by Rhodamine-Phalloidin staining based fluorescence microscopy; assay type: functional, cell-based
HASMC [11] = experiment: Increase in p27 expression in PDGF-stimulated human HASMC at 2 to 4 uM after 24 hrs by Western blot analysis; assay type: functional, cell-based
HASMC [12] = experiment: Inhibition of PDGF-induced cyclin E expression in human HASMC at 2 to 4 uM after 24 hrs by Western blot analysis; assay type: functional, cell-based
HASMC [13] = experiment: Inhibition of PDGF-induced cyclin D1 expression in human HASMC at 2 to 4 uM after 24 hrs by Western blot analysis; assay type: functional, cell-based
HASMC [14] = experiment: Inhibition of PDGF-induced CDK4 expression in human HASMC at 2 to 4 uM after 24 hrs by Western blot analysis; assay type: functional, cell-based
HASMC [15] = experiment: Increase in p21 expression in PDGF-stimulated human HASMC at 2 to 4 uM after 24 hrs by Western blot analysis; assay type: functional, cell-based
HASMC [16] = experiment: Cell cycle arrest in PGDF-stimulated human HASMC assessed as proportion of cells in S phase at 4 uM treated for 6 hrs prior to incubation with PDGF measured after 24 hrs by propidium iodide staining based flow cytometry (reference value: 20.8%); assay type: functional
[17] = target: Platelet-derived growth factor receptor beta (Homo sapiens) (UniProt P09619); experiment: Inhibition of PDGFRbeta in human HASMC assessed as decrease in PDGF-induced Akt phosphorylation at 1 to 4 uM after 5 to 15 mins by Western blot analysis
HASMC [18] = experiment: Cytotoxicity against human HASMC assessed as effect on cell migration at 4 uM after 24 hrs by modified boyden chamber analysis; assay type: cell-based
HASMC [19] = experiment: Inhibition of PDGF-induced human HASMC migration at 4 uM after 24 hrs by modified boyden chamber analysis; assay type: functional, cell-based

- inhibition [2]: Dose-dependent effect
- inhibition [3]: Active
- inhibition [6]: Active
- IC50 (HASMC [9]): 0.73 µM
- inhibition [17]: Active
SMILES: CCCCCCCC/C=C\CCCCCCC[C@H](O)[C@@H](O)[C@H](O)C#CC#CCO [PETROSIOL A]
- Activity (HASMC [1]): 10.1%
- Activity (HASMC [4]): 17.7%
- Activity (HASMC [5]): Non-toxic
- inhibition (HASMC [7]): Active
- IC50 (HASMC [8]): 1 µM
- inhibition (HASMC [8]): Dose-dependent effect
- inhibition (HASMC [9]): Dose-dependent effect
- inhibition (HASMC [10]): Active
- Activity (HASMC [11]): Active
- inhibition (HASMC [12]): Active
- inhibition (HASMC [13]): Active
- inhibition (HASMC [14]): Active
- Activity (HASMC [15]): Active
- Activity (HASMC [16]): 7.5%
- Activity (HASMC [18]): Non-toxic
- inhibition (HASMC [19]): Active

- IC50 (HASMC [9]): 0.72 µM
SMILES: C#C/C=C\CCCCCCCCCC/C=C\CCCCCCC[C@H](O)[C@@H](O)[C@H](O)C#CC#CCO [PETROSIOL C]
- inhibition (HASMC [9]): Dose-dependent effect

- IC50 (HASMC [9]): 0.71 µM
SMILES: CC(C)CCCCCC/C=C\CCCCCCC[C@H](O)[C@@H](O)[C@H](O)C#CC#CCO [PETROSIOL B]
- inhibition (HASMC [9]): Dose-dependent effect

- IC50 (HASMC [9]): 2.2 µM
SMILES: CC(C)CCCCCCC#CCCCCCCCCC[C@@H](O)C#CC#CCO [STRONGYLODIOL D]
- inhibition (HASMC [9]): Dose-dependent effect

- IC50 (HASMC [9]): 0.69 µM
SMILES: CCCCCCCCC/C=C\CCCCCCC[C@H](O)[C@@H](O)[C@H](O)C#CC#CCO [PETROSIOL D]
- inhibition (HASMC [9]): Dose-dependent effect

- IC50 (HASMC [9]): 1.1 µM
SMILES: CC(C)CCCCCC/C=C\CCCCCCCCC[C@@H](O)C#CC#CCO [STRONGYLODIOL C]
- inhibition (HASMC [9]): Dose-dependent effect
